According to patent publication US12252492B2, “Substituted fused pyrrolo-diazepinones and uses thereof” (Northwestern University, priority 2018, dated 2025):

Tests used:
Assay type in all cases: cell-based, human
[1] = test system: OVCAR-8; experiment: NCI60 one-dose screen, OVCAR-8; settings: OVCAR-8 (Ovarian Cancer); NCI 60 one-dose, 10^-5 M
Method: (§1) Anti-cancer activity screening of all compounds was performed by the NCI Developmental Therapeutics Program (DTP) through their NCI60 screening initiative. Assay details can be found at the website dtp.cancer.gov/discovery_development/nci-60/methodology.htm. Information from this website is reproduced here for convenience.
(§2) As of early 2007 all compounds submitted to the NCI 60 Cell screen are tested initially at a single high dose (10^-5 M) in the full NCI 60 cell panel. Only compounds which satisfy pre-determined threshold inhibition criteria in a minimum number of cell lines will progress to the full 5-dose assay. The threshold inhibition criteria for progression to the 5-dose screen was selected to efficiently capture compounds with anti-proliferative activity based on careful analysis of historical DTP screening data. The threshold criteria may be updated as additional data becomes available.
(§3) The One-dose data will be reported as a mean graph of the percent growth of treated cells and will be similar in appearance to mean graphs from the 5-dose assay. […]
(§4) Following drug addition, the plates are incubated for an additional 48 h at 37° C., 5% CO2, 95% air, and 100% relative humidity. […] Bound stain is subsequently solubilized with 10 mM trizma base, and the absorbance is read on an automated plate reader at a wavelength of 515 nm. […]

[2] = test system: MDA-MB-435; experiment: NCI60 one-dose screen, MDA-MB-435; settings: MDA-MB-435 (Melanoma); NCI 60 one-dose, 10^-5 M
Method: as §1, §2, §3, §4

[3] = test system: M14; experiment: NCI60 one-dose screen, M14; settings: M14 (Melanoma); NCI 60 one-dose, 10^-5 M
Method: as §1, §2, §3, §4

[4] = test system: NCI-H460; experiment: NCI60 one-dose screen, NCI-H460; settings: NCI-H460 (Non-Small Cell Lung Cancer); NCI 60 one-dose, 10^-5 M
Method: as §1, §2, §3, §4

[5] = test system: OVCAR-3; experiment: NCI60 one-dose screen, OVCAR-3; settings: OVCAR-3 (Ovarian Cancer); NCI 60 one-dose, 10^-5 M
Method: as §1, §2, §3, §4

[6] = test system: COLO 205; experiment: NCI60 one-dose screen, COLO 205; settings: COLO 205 (Colon Cancer); NCI 60 one-dose, 10^-5 M
Method: as §1, §2, §3, §4

CC(=O)N1c2ccccc2NC2=C(C(=O)N(C)C2(C)C)C1c1ccccc1 (stereo not drawn) [NUCC-60872]
Growth Percent [1]: 65.84%
Growth Percent [2]: −67.83%
Growth Percent [3]: 21.48%
Growth Percent [4]: 21.87%
Growth Percent [5]: 18.09%
Growth Percent [6]: 14.23%

CC(=O)N1c2ccccc2NC2=C(C(=O)N(Cc3ccccc3)C2(C)C)C1c1ccco1 (stereo not drawn) [NUCC-608455]
Growth Percent [1]: 26.13%
Growth Percent [2]: −56.24%
Growth Percent [3]: −13.58%
Growth Percent [4]: 4.83%
Growth Percent [5]: −7.65%
Growth Percent [6]: 16.77%
